According to ChEMBL document CHEMBL1156591, “Selective inhibitory effects of hybrid liposomes on the growth of HIV type 1-infected cells in vitro” (Bioorg Med Chem Lett, 2008):

Columns and labels:
MOLT-4 = test: Growth inhibition of human MOLT4 cells after 5 days by MTT assay; format: cell-based; conditions: MOLT-4, 120 h
[1] = test system: Human immunodeficiency virus 1; test: Growth inhibition of HIV1 3B infected human MOLT4 cells after 5 days by MTT assay; format: functional, organism-based; conditions: Human immunodeficiency virus 1, 3B, MOLT-4, 120 h

SMILES | IC50 (MOLT-4) | IC50 [1]
CCCCCCCCCCCCOCCOCCOCCOCCOCCOCCOCCOCCOCCOCCOCCOCCOCCOCCOCCOCCOCCOCCOCCOCCOCCOCCOCCO | 190 µM | 47 µM
CCCCCCCCCCCCOCCOCCOCCOCCOCCOCCOCCOCCOCCOCCOCCOCCOCCOCCOCCOCCOCCOCCOCCOCCOCCO | 121 µM | 34 µM
CCCCCCCCCCCCOCCOCCOCCOCCOCCOCCOCCOCCOCCOCCOCCOCCOCCOCCOCCOCCOCCOCCOCCOCCOCCOCCOCCOCCOCCO | 221 µM | 40 µM
CCCCCCCCCCCCCC(=O)OC[C@H](COP(=O)([O-])OCC[N+](C)(C)C)OC(=O)CCCCCCCCCCCCC [DIMYRISTOYLPHOSPHATIDYLCHOLINE] | 293 µM | 50 µM

Further molecules by falling IC50 (MOLT-4), results first:

IC50 (MOLT-4) | SMILES | IC50 [1]
118 µM | CCCCCCCCCCCCOCCOCCOCCOCCO [LAURETH 4] | 37 µM
59 µM | CCCCCCCCCCCCOCCOCCOCCOCCOCCOCCOCCOCCO | 29 µM
41 µM | CCCCCCCCCCCCOCCOCCOCCOCCOCCOCCOCCOCCOCCOCCO | 26 µM
